Data as given in US20240368181A1, “QUINOXALINE DERIVATIVES AND USES THEREOF” (Black Diamond Therapeutics, Inc., priority 2021, published 2024).

Experiments:
Assay type in all cases: cell-based
[1] = tested on: UM-UC-14 (FGFR3-S249C) cells; experiment: cell proliferation assay (CellTiterGlo), UM-UC-14 cells; settings: UMUC14, 72 h
Description: (§1) In some embodiments, the biological assay assess the ability of the compounds to inhibit cell proliferation.
(§2) In some embodiments, cells (e.g., SNU-16 (FGFR2-amplification) cells) may be suspended and dispensed in plates. In some embodiments, cells (e.g., UM-UC-14 (FGFR3-S249C) cells) may be suspended and dispensed in plates. In some embodiments, cells (e.g., DMS-114 (FGFR1 overexpression) cells) may by suspended and dispensed in plates. In some embodiments, cells (e.g., RT-112 (FGFR3-Tacc3 fusion) cells) may be suspended and dispensed in plates. In some embodiments, to determine the effect of the compounds of the present disclosure on cell proliferation, cells (e.g., SNU-16, UM-UC-14, DMS-114 and […] cells) may be incubated in the presence of vehicle control (e.g., DMSO) or a compound of the present disclosure at varying concentrations and the inhibition of cell growth may be determined by luminescent quantification (e.g., of intracellular ATP content using CellTiterGlo), according to the manufacturers protocol. In some embodiments, to determine the IC50 values, the vehicle-treated cells were normalized as viable cells and the growth was analyzed using a software (e.g., the CDD Vault software (Collaborative Drug Discovery, Burlingame, CA)).

[2] = tested on: RT-112 (FGFR3-Tacc3 fusion) cells; experiment: cell proliferation assay (CellTiterGlo), RT-112 cells; settings: Homo sapiens, RT-112, RT112 cells, 72 hours
Description: as §1, §2

[3] = tested on: DMS-114 (FGFR1 overexpression) cells; experiment: cell proliferation assay (CellTiterGlo), DMS-114 cells; settings: Homo sapiens, DMS-114, 72 h
Description: as §1, §2

[4] = tested on: SNU-16 (FGFR2-amplification) cells; experiment: cell proliferation assay (CellTiterGlo), SNU-16 cells; settings: Homo sapiens, 72 hours
Description: as §1, §2

| IC50 [4] [nM] | Structure (SMILES) | IC50 [1] [nM] | IC50 [2] [nM] | IC50 [3] [nM] |
| --- | --- | --- | --- | --- |
|  | COC1CCN(C(=O)Cn2cc(-c3cnc4ccc(Oc5ccc6nc(C)[nH]c6c5)c(Cl)c4n3)cn2)CC1 [Compound 113] | 20 to 100 | 20 to 100 | ≥ 400 |
|  | Cc1nc2ccc(Oc3ccc4ncc(-c5cnn(CC6CC(F)(F)C6)c5)nc4c3N3CCCC3=O)cc2[nH]1 [Compound 117] | ≥ 400 | ≥ 400 | ≥ 400 |
|  | Cc1nc2ccc(Oc3ccc4ncc(-c5cnn(C6CC7(CC(O)C7)C6)c5)nc4c3Cl)cc2[nH]1 (stereo not shown) [Compound 161] | 20 to 100 |  | ≥ 400 |
|  | Cc1nc2ccc(Oc3ccc4ncc(-c5cnn([C@@H](C)CO)c5)nc4c3Cl)cc2[nH]1 [Compound 125] | 20 to 100 | 20 to 100 | ≥ 400 |
|  | Cc1nc2ccc(Oc3ccc4ncc(-c5cnn(CC6(O)CC6)c5)nc4c3C3CCOC3)c(F)c2[nH]1 (stereo not shown) [Compound 70] | 20 to 100 | 20 to 100 | 20 to 100 |
| < 20 | Cc1nc2ccc(Oc3ccc4ncc(-c5cnn([C@H]6C[C@](C)(O)C6)c5)nc4c3Cl)cc2[nH]1 [Compound 175] | 20 to 100 |  | 100 to 400 |
|  | Cc1nc2cc(Oc3ccc4ncc(-c5cnn(CC6CC(F)(F)C6)c5)nc4c3C(F)F)ccc2[nH]1 [Compound 157] | 20 to 100 |  | 100 to 400 |
| < 20 | Cc1nc2ccc(Oc3ccc4ncc(-c5cnn(C[C@H]6C[C@](C)(O)C6)c5)nc4c3Cl)cc2[nH]1 [Compound 181] | 20 to 100 |  | ≥ 400 |
|  | Cc1nc2ccc(Oc3ccc4ncc(-c5cnn(C6(C)CCC(F)(F)CC6)c5)nc4c3Cl)cc2[nH]1 [Compound 171] | 100 to 400 |  | ≥ 400 |
| 20 to 100 | Cc1nc2ccc(Oc3ccc4ncc(-c5cnn(CC6CC(F)(F)C6)c5)nc4c3C3CCOC3)cc2[nH]1 (stereo not shown) [Compound 134] |  | 20 to 100 |  |
|  | Cc1nc2ccc(Oc3ccc4ncc(-c5cnn(CC6(O)CC6)c5)nc4c3Cl)c(F)c2[nH]1 [Compound 162] | 20 to 100 |  | 20 to 100 |
|  | CC(=O)N1CCN(C(=O)Cn2cc(-c3cnc4ccc(Oc5ccc6nc(C)[nH]c6c5)c(Cl)c4n3)cn2)CC1 [Compound 114] | ≥ 400 | 100 to 400 | ≥ 400 |
| < 20 | Cc1nc2ccc(Oc3ccc4ncc(-c5cnn(CC(=O)N6CCC(F)(F)C6)c5)nc4c3Cl)c(F)c2[nH]1 [Compound 174] | < 20 |  | 100 to 400 |
|  | Cc1nc2ccc(Oc3ccc4ncc(-c5cnn(CC6(O)CC6)c5)nc4c3-n3ccnc3)c(F)c2[nH]1 [Compound 103] | 100 to 400 | 100 to 400 | ≥ 400 |
|  | Cc1nc2ccc(Oc3ccc4ncc(-c5cnn(CC6CC(F)(F)C6)c5)nc4c3C3=CCOC3(C)C)cc2[nH]1 [Compound 71] | 20 to 100 | 100 to 400 | 100 to 400 |
|  | Cc1nc2ccc(Oc3ccc4ncc(-c5cnn(CC6CC(F)(F)C6)c5)nc4c3N)cc2[nH]1 [Compound 159] | ≥ 400 |  | ≥ 400 |
|  | Cc1nc2ccc(Oc3ccc4ncc(-c5cnn(C6CC7(CC(=O)C7)C6)c5)nc4c3Cl)cc2[nH]1 [Compound 165] | 20 to 100 |  | ≥ 400 |
|  | Cc1nc2ccc(Oc3ccc4ncc(-c5cnn([C@H]6C[C@@](C)(O)C6)c5)nc4c3Cl)cc2[nH]1 [Compound 168] | 20 to 100 |  | ≥ 400 |
|  | Cc1nc2ncc(Oc3ccc4ncc(-c5cnn(C6CCC(F)(F)CC6)c5)nc4c3Cl)cc2[nH]1 [Compound 169] | ≥ 400 |  | ≥ 400 |
| < 20 | Cc1nc2ccc(Oc3ccc4ncc(-c5cnn(C6CCN(C)C7(CC7)C6)c5)nc4c3Cl)c(F)c2[nH]1 (stereo not shown) [Compound 135] |  | < 20 |  |
|  | Cc1nc2ccc(Oc3ccc4ncc(-c5cnn(CC6CCS(=O)(=O)CC6)c5)nc4c3S(C)(=O)=O)cc2[nH]1 [Compound 116] | 100 to 400 | ≥ 400 | ≥ 400 |
|  | Cc1nc2ccc(Oc3ccc4ncc(-c5cnn(CC6CC(F)(F)C6)c5)nc4c3C3CCOC3)c(F)c2[nH]1 (stereo not shown) [Compound 72] | 20 to 100 | < 20 | 20 to 100 |
| 100 to 400 | Cc1nc2ccc(Oc3ccc4ncc(-c5cnn(CC6(O)CC6)c5)nc4c3F)c(Cl)c2[nH]1 [Compound 137] |  | 100 to 400 |  |
|  | Cc1nc2ccc(Oc3ccc4ncc(-c5cnn([C@H]6C[C@@H](O)C6)c5)nc4c3Cl)cc2[nH]1 [Compound 173] | 20 to 100 |  | 100 to 400 |
| 20 to 100 | Cc1nc2ccc(Oc3ccc4ncc(-c5cnn(C(C)C6CC(F)(F)C6)c5)nc4c3Cl)cc2[nH]1 (stereo not shown) [Compound 182] | 20 to 100 |  | ≥ 400 |

| IC50 [4] [nM] | Structure (SMILES) | IC50 [1] [nM] | IC50 [2] [nM] | IC50 [3] [nM] |
| --- | --- | --- | --- | --- |
|  | Cc1nc2ccc(Oc3ccc4ncc(-c5cnn(C[C@H]6C[C@@](C)(O)C6)c5)nc4c3Cl)c(F)c2[nH]1 [Compound 167] | < 20 |  | 20 to 100 |
|  | Cc1nc2ccc(Oc3ccc4ncc(-c5cnn(CC6(O)CC(O)C6)c5)nc4c3Cl)c(F)c2[nH]1 (stereo not shown) [Compound 102] | < 20 | < 20 | 20 to 100 |
| ≥ 400 | Cc1nc2ccc(Oc3ccc4ncc(-c5cnn(CC6(O)COC6)c5)nc4c3Cl)c(F)c2[nH]1 [Compound 138] |  | ≥ 400 |  |
|  | Cc1nc2ccc(Oc3ccc4ncc(-c5cnn(CC6(O)CC6)c5)nc4c3I)cc2[nH]1 [Compound 129] | 20 to 100 | 20 to 100 | ≥ 400 |
| 20 to 100 | Cc1nc2ccc(Oc3ccc4ncc(-c5cnn([C@H]6C[C@H](C(F)(F)F)C6)c5)nc4c3Cl)cc2[nH]1 [Compound 178] | ≥ 400 |  | ≥ 400 |
| < 20 | Cc1nc2ccc(Oc3ccc4ncc(-c5cnn(C6CCN(C(=O)N(C)C)CC6)c5)nc4c3Cl)cc2[nH]1 [Compound 261] | < 20 |  | 20 to 100 |
|  | Cc1nc2ccc(Oc3ccc4ncc(-c5cnn(C(C)(C)C6CC(O)C6)c5)nc4c3Cl)cc2[nH]1 (stereo not shown) [Compound 160] | 20 to 100 |  | 100 to 400 |
|  | Cc1nc2ccc(Oc3ccc4ncc(-c5cnn([C@@H](C)C6CCC(F)(F)CC6)c5)nc4c3Cl)cc2[nH]1 [Compound 104] | 20 to 100 | 20 to 100 | ≥ 400 |
|  | Cc1nc2ccc(Oc3ccc4ncc(-c5cnn(C6CCN(C)C7(CC7)C6)c5)nc4c3Cl)cc2[nH]1 (stereo not shown) [Compound 163] | 20 to 100 |  | 100 to 400 |
| 100 to 400 | Cc1nc2ccc(Oc3ccc4ncc(-c5cnn(C6CCNC7(CC7)C6)c5)nc4c3Cl)cc2[nH]1 (stereo not shown) [Compound 176] | < 20 |  | 100 to 400 |
|  | Cc1nc2ccc(Oc3ccc4ncc(-c5cnn(C6CC7(C6)CC(F)(F)C7)c5)nc4c3Cl)cc2[nH]1 [Compound 101] | 100 to 400 | 100 to 400 | ≥ 400 |
|  | Cc1nc2ccc(Oc3ccc4ncc(-c5cnn(CC(=O)N6CCOCC6)c5)nc4c3Cl)c(F)c2[nH]1 [Compound 155] | < 20 |  | 20 to 100 |
|  | Cc1nc2ccc(Oc3ccc4ncc(-c5cnn([C@H]6C[C@H](O)C6)c5)nc4c3Cl)cc2[nH]1 [Compound 172] | 100 to 400 |  | ≥ 400 |
|  | Cc1nc2ccc(Oc3ccc4ncc(-c5cnn(C(C)(C)CO)c5)nc4c3Cl)c(F)c2[nH]1 [Compound 142] | < 20 | < 20 | 100 to 400 |
|  | Cc1nc2cc(Oc3ccc4ncc(-c5cnn(CC6CC(F)(F)C6)c5)nc4c3C=O)ccc2[nH]1 [Compound 158] | ≥ 400 |  | ≥ 400 |
| ≥ 400 | Cc1nc2ccc(Oc3ccc4ncc(-c5cnn(C6CCC(F)(F)CC6)c5)nc4c3Cl)nc2[nH]1 [Compound 177] | ≥ 400 |  | ≥ 400 |
|  | Cc1nc2ccc(Oc3ccc4ncc(-c5cnn(CC6(O)CC6)c5)nc4c3C3=CCCC3)cc2[nH]1 [Compound 164] | 20 to 100 |  | 20 to 100 |
|  | Cc1nc2ccc(Oc3ccc4ncc(-c5cnn(C[C@H](C)O)c5)nc4c3Cl)c(F)c2[nH]1 [Compound 118] | < 20 | < 20 | 100 to 400 |
| 20 to 100 | Cc1nc2ccc(Oc3ccc4ncc(-c5cnn(C[C@H]6C[C@@](C)(O)C6)c5)nc4c3Cl)cc2[nH]1 [Compound 180] | 20 to 100 |  | ≥ 400 |
|  | Cc1nc2ccc(Oc3ccc4ncc(-c5cnn([C@H](C)C6CCC(F)(F)CC6)c5)nc4c3Cl)cc2[nH]1 [Compound 105] | 20 to 100 | 20 to 100 | ≥ 400 |
|  | Cc1nc2ccc(Oc3ccc4ncc(-c5cnn(C6(C)CC=C(F)CC6)c5)nc4c3Cl)cc2[nH]1 (stereo not shown) [Compound 170] | 100 to 400 |  | ≥ 400 |
|  | Cc1nc2ccc(Oc3ccc4ncc(-c5cnn(C6CC(=O)C6)c5)nc4c3Cl)c(F)c2[nH]1 [Compound 156] | < 20 |  | 20 to 100 |
|  | Cc1nc2ccc(Oc3ccc4ncc(-c5cnn(C[C@H]6C[C@](C)(O)C6)c5)nc4c3Cl)c(F)c2[nH]1 [Compound 166] | 20 to 100 |  | 100 to 400 |
|  | Cc1nc2ccc(Oc3ccc4ncc(-c5cnn(CC6CC(F)(F)C6)c5)nc4c3NC(=O)CCCCl)cc2[nH]1 [Compound 120] | 100 to 400 | 100 to 400 | ≥ 400 |
